From a melting point compilation (Tetko et al.; mined from patent text by program, amines drawn as free bases though some values may be those of a salt) come the findings set out here.

`O=C(/C=C/c1cccc(Cl)c1)NC1CC1` returned a melting point of 112 to 113 °C. `O=C(NC1CCN(CCOC(=O)c2ccccc2)CC1)c1ccccc1` registered a melting point of 139 to 140 °C. In turn, `CCCOC(=O)c1cnc(S)n1C(c1ccccc1)c1ccccc1` registered a melting point of 133 °C. For the molecule `COc1ccc(N2CCN(c3ccc(N4C(=O)C5CCCCN5C4=O)cc3)CC2)cc1` (centres undefined), the melting point stood at 223 °C. In the case of `Oc1ccc(C=C2c3ccccc3CCc3ccccc32)cc1O` it was 138 °C; in that of `O=C1OC(=O)c2c1cccc2N1C(=O)CCCC1=O`, 234 to 236 °C; in that of `CCOP(=O)(OCC)c1ccc(N)cc1`, 112 to 116 °C. In the case of `COCOc1ccc(C(=O)O)c(OCc2ccc(Cl)cc2Cl)c1C`, the melting point turned out to be 174 °C. Molecule `Cc1cncn1-c1cc(NC(=O)OC(C)(C)C)cc(C(F)(F)F)c1` showed a melting point of 169 to 171 °C. Molecule `N#Cc1c(N2CCN(C(=O)c3cccs3)CC2)c2cc(Cl)cnc2n(Cc2cccc(F)c2)c1=O` showed a melting point of 204 °C. In the case of `O=C(Cc1ccccn1)NC1CCC2(O)C3Cc4ccc(O)c5c4C2(CCN3CC2CC2)C1O5` (centres undefined) it was 210 to 212 °C. On to `COC(=O)C#CC(=O)c1ccc(F)cc1`, for which the melting point fell in the range of 62 to 63 °C. Molecule `CSc1cc(C)nc(SC)c1[N+](=O)[O-]` showed a melting point of 172 to 176 °C. The molecule `CC(=O)c1sc(N2CCN(Cc3cccc(C(F)(F)F)c3)C2=O)nc1C` gave a melting point of 149 to 151 °C. The molecule `N=C(Nc1ccccc1)Nc1ncccc1OCc1c(Cl)cccc1Cl` registered a melting point of 163 to 165 °C. With `Cc1cc(Br)ccc1C1(CBr)OCCO1`, the melting point is 86 °C. Regarding `O=C1c2ccccc2C(=O)c2c1cccc2N1CCC(C2CCNCC2)CC1`, the melting point lay within 155 to 160 °C. In turn, `COc1cc(C=C(C=O)C(C=O)=Cc2ccc(OC(C)=O)c(OC)c2)ccc1OC(C)=O` yielded a melting point of 149 to 151 °C. The molecule `O=C(O)CCCc1cc2nc(Cl)ccc2n1S(=O)(=O)c1ccc(F)cc1` returned a melting point of 180 °C. In the case of `CC(C1CC1)C(O)(Cn1nc[nH]c1=S)c1ccc(Cl)cc1` (centres undefined), the melting point turned out to be 137 °C. `CCCCCCC(=O)Oc1ccc(-c2ccc(C#N)cc2)cc1` returned a melting point of 57.7 to 57.9 °C. The molecule `Nc1ncc(C2OC(CO)C(O)C2O)c(Cl)n1` (centres undefined) displayed a melting point of 195 to 197 °C. In the case of `C/C=C\Cn1c(C(=O)c2cc(C)cc(C)c2)c(CC)c(=O)[nH]c1=O` it was 199 to 200 °C. Molecule `CC(C)(NC(=O)OCc1ccccc1)C(=O)NC(c1ccccc1)c1ccccc1` registered a melting point of 157 to 159 °C. Under `c1ccc2c(c1)ncc1nc(C3CCCC3)[nH]c12` stands 192 °C. In the case of `CCOC(=O)CCSC(CC)=NNC(N)=O`, the melting point was 63.5 to 64.5 °C. Under `COC(=O)C(=CNc1ccc(F)cc1)C(=O)C=Cc1ccc(NC(C)=O)cc1` stands 161 to 164 °C. In turn, `N#CCOC(=O)c1ccc(C(c2ccccc2)(c2ccccc2)c2ccccc2)cn1` registered a melting point of 173 to 175 °C.

Consider `CCc1cn2ccc(NC(=O)c3cc4cc(C(F)(F)F)cnc4n3Cc3cccc(F)c3)cc2n1`, for which the melting point lay in the range of 264 to 265 °C.

`Cc1noc2cc3c(cc12)C1(CO3)C(=O)N(Cc2ncccc2C(F)(F)F)c2ccccc21` (centres undefined) displayed a melting point of 221 to 222 °C. Under `O=C1N[C@@H](C(=O)NO)C[C@H]1c1ccc(-c2ccc(F)cc2)cc1` stands 193 to 202 °C; under `COCCOC(=O)Nc1cccc(C)c1CNc1cccn2c(CO)c(C)nc12`, 138 to 140 °C; under `COc1ccc(NC(=O)CN2CCC(Cc3ccc(F)cc3)CC2)cc1`, 121 to 124 °C. Consider `Cc1nc(-c2ccc(Br)cc2)n(-c2ccc(S(N)(=O)=O)cn2)n1`, for which the melting point was in the range of 221 to 222 °C. In turn, `CCCCCCCCCCCCCCCCn1cccc1C1=CC(=O)c2ccccc2C1=O` came in with a melting point of 56 to 57 °C.

With `CC(=O)N1[C@@H](C(=O)O)C(C)(C)S[C@H]1c1ccccc1`, the melting point fell in the range of 216 to 217 °C.

`O=C(NC1CCN(Cc2ccccc2)CC1)c1cccc(OCc2ccc3ccccc3n2)c1` showed a melting point of 60 to 62 °C.

Take `CCC1(C)OC(c2ccc(S(C)(=O)=O)cc2)=C(c2cc(F)cc(F)c2)C1=O` (centres undefined): the melting point lay within 122 to 124 °C. Regarding `COc1cccc2c1C(O)CC21CCN(CCCC(=O)c2ccc(F)cc2)C1` (centres undefined), the melting point lay within 152 to 154 °C. With `CCS(=O)c1cc(C(=O)NCC2CCCN2CC2CC2)c(OC)cc1N` (centres undefined), the melting point was 158 to 162 °C. `CC(=O)c1ccc(OCCOc2ccc3ccccc3c2)c(Cl)c1` gave a melting point of 164 to 166 °C. The molecule `COC(=O)CC(C)C1CCC2C3CC=C4CC(OC(C)=O)CC(OC(C)=O)C4(C)C3CCC12C` (centres undefined) returned a melting point of 123 to 124 °C. Consider `Cc1ccnc(N2CCN(CCCCC3Sc4cc(O)ccc4NC3=O)CC2)c1` (centres undefined), for which the melting point was 212 °C. With `Cc1nc2c3c(c(C(N)=O)cc2n1C)CCC(c1ccccc1)O3` (centres undefined), the melting point was 264 to 267 °C. With `CC(=O)SCC(Cc1ccccc1)C(=O)Nc1cc(C)cc(C(=O)O)c1` (centres undefined), the melting point lay in the range of 160 to 161 °C.

The molecule `O=C1C=C(NC(=O)C(=O)c2cn(Cc3ccc(Cl)cc3)c3ccc([N+](=O)[O-])cc23)CO1` displayed a melting point of 248 to 250 °C. For the molecule `CCOC(=O)c1ccc(N2CCC(NCC(O)COc3ccc(N)nc3)CC2)nc1` (centres undefined), the melting point was 120 to 122 °C.

As to `Cn1cnc(Cc2cccc3c2OC(C)(C)OC3)c1`, the melting point lay within 67 to 72 °C. `COc1cccc(NC(=O)c2sccc2S(=O)(=O)Nc2onc(C)c2Br)c1` displayed a melting point of 200 to 202 °C.

Turning to `CC(C)OCCC(=O)C=P(c1ccccc1)(c1ccccc1)c1ccccc1`, the melting point was 66 to 70 °C. `CCCCN1C(=O)CN2C(=O)CN(c3ccc(C(C)C)cc3Br)c3nc(C)nc1c32` registered a melting point of 207 to 208 °C.

With `CSc1ccc2oc3cc(F)ccc3c(=O)c2c1`, the melting point lay within 113 to 116 °C. As for `N#Cc1c(C(F)(F)F)nn(-c2c(Cl)cc(C(F)(F)F)cc2Cl)c1C(F)(F)F`, the melting point was 88 to 92 °C.

`O=C(Nc1ccc(-c2cnc(-c3cccc(NC(=O)c4ccccn4)c3)[nH]2)cc1)c1ccccn1` yielded a melting point of 205 to 208 °C. Turning to `O=C(O)C1=CC(CF)(CF)Oc2ccc(C(F)(F)C(F)(F)F)cc21`, the melting point was 173 to 174 °C. For the molecule `CCCCCCC(=N)NC(=S)Nc1cc(C(F)(F)F)ccc1Cl`, the melting point was in the range of 88 to 90 °C. `CCCC=Cc1c(C(C)C)nc(C(C)C)c(CO)c1-c1cccc(F)c1` displayed a melting point of 117 to 118 °C. Under `CCNc1nc(C)c(-c2ccnc(Nc3ccc(N4CCSCC4)cc3)n2)s1` stands 207 to 209 °C; under `Cc1nc(NC(=O)c2cnn3c(C(F)(F)F)cc(-c4ccc(C(F)(F)F)cc4)nc23)sc1S(=O)(=O)NC(C)(CO)CO`, 250 °C; under `CCCCCCCCCCCCCCC(=O)C(=O)N[C@H](C(=O)NCC(=O)O)C(C)C`, 87 to 89 °C. Take `Cc1cc(=O)c(OCc2ccccc2)c(CO)o1`: the melting point was in the range of 115 to 116 °C. With `O=S(c1ccccc1-c1ccccc1)C(F)(F)F` (centres undefined), the melting point was 57 to 58 °C.

Consider `Cc1c(-c2ccco2)c(N2CC[C@H](N(C)C)C2)c2oc(C3CC3)nc2c1C#N`, for which the melting point was 158 to 159 °C. Turning to `Oc1ccc(-c2csc(S)n2)cc1O`, the melting point turned out to be 236 °C. In the case of `COc1cc(N2CCC(N3CCN(C)CC3)CC2)ccc1Nc1ncc2ccc(-c3cccc(S(=O)(=O)NC(C)(C)C)c3)n2n1` it was 214 to 216 °C; in that of `CCC=C1SC(=S)N(CC(=O)O)C1=O`, 138 to 140 °C. `COc1cc(-c2nc3ccc(OCCCN(C)C)cc3n2Cc2ccccc2Br)cc(OC)c1OC`: the melting point was 141 °C. The molecule `CCn1cc(C(=O)O)c(=O)c2cc(C=NO)sc21` yielded a melting point of 315 to 317 °C. `CC(=O)Nc1ccc(C=O)c(F)c1F` showed a melting point of 154 °C. The molecule `O=C(O)C(Cc1ccsc1)N1C(=O)c2ccccc2C1=O` (centres undefined) displayed a melting point of 162 to 165 °C. In turn, `CCOC(=O)c1cccc(NC(=O)N2CCc3cc(SC)c(C(F)(F)F)cc32)c1` had a melting point of 195 to 197 °C. In turn, `CN(C)C(=O)NCc1cccc2c1CN(C1CCC(=O)NC1=O)C2=O` (centres undefined) returned a melting point of 169 to 171 °C. In the case of `BrCCCc1ccc(C=Cc2cc3ccccc3s2)s1` it was 109 to 111 °C.

The molecule `COc1ccc2c(-c3c(F)cccc3F)noc2c1Cl` showed a melting point of 175 to 179 °C. Regarding `Cc1ccccc1OCCCN1CCC(C(O)(c2ccc(F)cc2)c2ccc(F)cc2)CC1`, the melting point fell in the range of 108 to 109 °C.

For the molecule `CCCCCCCCCCCC(C(=O)NN)C(C(=O)Nc1c(OC)cc(OC)cc1OC)c1ccccc1` (centres undefined), the melting point is 175 to 180 °C.

For `COc1ccc(COC(=O)c2ccc(C(O)C(=O)O)cc2)cc1` (centres undefined), the melting point lay in the range of 111 to 113 °C. With `OCCc1ccc(OCC2CO2)cc1` (centres undefined), the melting point was in the range of 56 to 58.5 °C.

`COc1ccc(-n2nc(Sc3cc(C)cc(C)c3)c(C)c(C#N)c2=O)cc1` came in with a melting point of 175 to 177 °C. For the molecule `CC(C)OC(=O)COc1ccc(C(=O)CBr)cc1`, the melting point was in the range of 60 to 61 °C. In the case of `Cc1cc2c(cc1-c1c[nH]c(C=O)c1)C(C)(C)CCC2(C)C` it was 128 to 129 °C. `CCCC(=O)c1cc2nc(C=O)n(C)c2cc1C` showed a melting point of 107 to 108 °C. Molecule `CCC1SC(=O)N(Cc2ccc(C(=O)O)cc2)N=C1c1ccc(O)c(O)c1` (centres undefined) returned a melting point of 106 °C. In the case of `CCCCCCCCCCCCCCCCCC(=O)C(=O)OCC`, the melting point fell in the range of 43 to 44 °C.

Turning to `O=C(NCc1ccccc1)c1ccnc(NC(=O)c2cc(F)ccc2Cl)c1`, the melting point was in the range of 180 to 181 °C. For the molecule `Cc1ccc(C)c(C(Cl)=NNc2ccccc2)c1`, the melting point lay within 48.5 to 49 °C.

`COc1cc(F)ccc1C(=O)NCCN1CCC(n2c(=O)[nH]c3cc(Cl)ccc32)CC1` yielded a melting point of 227 °C. Molecule `Cc1c(O)ccc2c(=O)c(-c3cccc(C(F)(F)F)c3)coc12` showed a melting point of 283 to 284 °C.

The molecule `CC(=O)CC(=O)Nc1ccc(Nc2ccccc2)cc1` yielded a melting point of 89.5 °C.
